Assays:
[1] = tested on: NEO2A (RNA, aptamer) CACUGCAGUCCGAAAAGGGCCAGUG; test: ITC; settings: 13.5 mM NaCl, 150 mM KCl, 0.12 mM MgCl2, 0.1 mM MgSO4, 120 nM CaCl2, Buffer A: 20 mM HEPES, pH 7.3, 25 °C
[2] = tested on: 2AP16NEO2A (RNA, aptamer, 2-aminopurine at 16) CACUGCAGUCCGAAAAGGGCCAGUG; test: ITC; settings: 13.5 mM NaCl, 150 mM KCl, 0.12 mM MgCl2, 0.1 mM MgSO4, 120 nM CaCl2; Buffer A, pH 7.3, 25 °C; affinity 40% of unsubstituted NEO2A
[3] = tested on: 2AP7NEO2A (RNA, aptamer, 2-aminopurine at 7) CACUGCAGUCCGAAAAGGGCCAGUG; test: 2-aminopurine fluorescence; settings: buffer A or F; 10 μM ligand, 1 μM RNA; fluorescence increase
[4] = tested on: 2AP13NEO2A (RNA, aptamer, 2-aminopurine at 13) CACUGCAGUCCGAAAAGGGCCAGUG; test: 2-aminopurine fluorescence; settings: buffer A or F; 10 μM ligand, 1 μM RNA; fluorescence increase
[5] = tested on: 2AP14NEO2A (RNA, aptamer, 2-aminopurine at 14) CACUGCAGUCCGAAAAGGGCCAGUG; test: 2-aminopurine fluorescence; settings: buffer A or F; 10 μM ligand, 1 μM RNA; fluorescence decrease
[6] = tested on: NEO2AΔA (RNA, aptamer) CACUGCAGUCCGAAAGGGCCAGUG; test: ITC; settings: 13.5 mM NaCl, 150 mM KCl, 0.12 mM MgCl2, 0.1 mM MgSO4, 120 nM CaCl2; Buffer A: 20 mM HEPES, phosphate, pH 7.3, 25 °C

## NC[C@H]1O[C@H](O[C@H]2[C@H](O)[C@@H](O[C@H]3O[C@H](CO)[C@@H](O)[C@H](N)[C@H]3O)[C@H](N)C[C@@H]2N)[C@H](O)[C@@H](O)[C@@H]1O
[1]; phosphate
  Kd: 26 ± 3.0 µM

## NC[C@H]1O[C@H](O[C@H]2[C@H](O)[C@@H](O[C@H]3O[C@H](CO)[C@@H](O)[C@H](N)[C@H]3O)[C@H](N)C[C@@H]2N)[C@H](N)[C@@H](O)[C@@H]1O
[1]; phosphate
  Kd: 0.25 ± 0.073 µM

## NC[C@@H]1O[C@H](O[C@H]2[C@@H](O)[C@H](O[C@@H]3[C@@H](O)[C@H](N)C[C@H](N)[C@H]3O[C@H]3O[C@H](CN)[C@@H](O)[C@H](O)[C@H]3N)O[C@@H]2CO)[C@H](N)[C@@H](O)[C@@H]1O
[2]
  binding: yes
[3]
  binding: yes
[1]; phosphate
  Kd: 0.25 ± 0.050 µM
[4]
  binding: yes
[5]
  binding: yes
[6]
  Kd: 0.17 ± 0.031 µM

## NC[C@H]1O[C@H](O[C@H]2[C@H](O)[C@@H](O[C@H]3O[C@H](CO)[C@@H](O)[C@H](N)[C@H]3O)[C@H](N)C[C@@H]2N)[C@H](N)C[C@@H]1O
[1]; phosphate
  Kd: 0.40 ± 0.051 µM
[6]
  Kd: 6.3 ± 0.84 µM

## CN[C@@H]1[C@@H](O)[C@@H](O[C@@H]2[C@@H](O)[C@H](O[C@H]3O[C@H]([C@@H](C)O)[C@@H](O)[C@H](O)[C@H]3N)[C@@H](N)C[C@H]2N)OC[C@]1(C)O
[1]; phosphate
  Kd: > 100 µM

## CCN[C@@H]1C[C@H](N)[C@@H](O[C@H]2OC(CN)=CC[C@H]2N)[C@H](O)[C@H]1O[C@H]1OC[C@](C)(O)[C@H](NC)[C@H]1O
[1]; phosphate
  Kd: > 100 µM

## NC[C@H]1O[C@H](O[C@H]2[C@H](O[C@@H]3O[C@H](CO)[C@@H](O)[C@H]3O)[C@@H](O)[C@H](N)C[C@@H]2N)[C@H](N)[C@@H](O)[C@@H]1O
[1]; Table S4 prints 0.4 ± 0.075
  Kd: 0.28 ± 0.066 µM
[6]
  Kd: 2.3 ± 0.0015 µM

## CN[C@@H]1[C@@H](O)[C@@H](O[C@@H]2[C@@H](O)[C@H](O[C@H]3OC(CN)=CC[C@H]3N)[C@@H](N)C[C@H]2N)OC[C@]1(C)O
[1]; phosphate
  Kd: 4.9 ± 1.2 µM
[6]
  Kd: 4.9 ± 1.0 µM

## NCC[C@H](O)C(=O)N[C@@H]1C[C@H](N)[C@@H](O[C@H]2O[C@H](CN)[C@@H](O)[C@H](O)[C@H]2O)[C@H](O)[C@H]1O[C@H]1O[C@H](CO)[C@@H](O)[C@H](N)[C@H]1O
[1]; phosphate
  Kd: > 100 µM

## NC[C@@H]1O[C@H](O[C@H]2[C@@H](O)[C@H](O[C@@H]3[C@@H](O)[C@H](N)C[C@H](N)[C@H]3O[C@H]3O[C@H](CO)[C@@H](O)[C@H](O)[C@H]3N)O[C@@H]2CO)[C@H](N)[C@@H](O)[C@@H]1O
[1]; phosphate
  Kd: 1.6 ± 0.26 µM
[6]
  binding: no

Reference: PMC6943582 (2019)
